Source: patent publication US4725598A, “Derivative of dihydroxybenzamide and a pharmaceutical composition having an anti-inflammatory activity” (priority 1983, dated 1988)
Where two headings read alike, the source gives them in different places.

Legend:
[1] = test system: migration of polymorphonuclear leukocytes; assay: Inhibition of migration of polymorphonuclear leukocytes, in vivo pouch-CMC method; design: species or system male Donryu rats
Description: The activity of each of the present compounds in in vivo inhibiting the migration of polymorphonuclear leukocytes was examined by the pouch-CMC method presented by Ishikawa (refer to J. Pharmaceut. Soc., Japan, 88, 1472, 1968) using male Donryu rats.
After cutting the hairs on the back of each male Donryu rat at a 5 cm square, 5 ml of air were subcutaneously injected into the hair-cut position, and after 24 hours of the injection, 5 ml of a 0.2% solution of sodium carboxymethylcellulose in a saline was injected into the pouch made by the injected air.
After dividing the rats into 3 groups, an aqueous 0.2% solution of carboxymethylcellulose was orally administered to each rat of the first group at a rate of 1 ml/100 g body weight (as control), and each of the present compounds (Compounds Nos. 1, 2 and 4) was orally administered to each rat of the second group after suspending the compound in an aqueous 0.2% solution of carboxymethylcellulose. Each rat of the third group is orally administered with an aqueous solution of indomethacin as positive control.
After 3 and 6 hours of the injection, the exudates in the pouch were collected from each rat, and the number of polymorphonuclear leukocytes (hereinafter referred to as PMN) exudated was counted and, the results are shown in Table 2.

platelet aggregation = assay: Inhibitory activity of platelet aggregation (sodium arachidonate induced, platelet-rich plasma); assay type: cell-based; settings: Oryctolagus cuniculus, rabbit plasma, sodium arachidonate 400 μM, read-out: IC100 (concentration necessary for inhibiting platelet aggregation perfectly)
Description: After collecting blood specimen from the auricular vein of a male rabbit of an ordinary race in the presence of citrate, the thus collected blood was subjected to centrifugation to obtain a platelet-rich plasma (PRP) and a platelet-poor plasma (PPP) therefrom. The plasma containing 300,000 platelets/μl was prepared by diluting the PRP with the PPP, and divided equally into two portions.
Into the first portion of the thus obtained plasma mixture, as control, dimethylsulfoxide was added, and then, an aqueous solution of sodium arachidonate as an aggregation agent prepared by dissolving thereof into a saline solution was added to the resultant mixture to adjust the final concentration of the arachidonate therein to 400 μM.
On the other hand, into the second portion thereof, a solution of each of the present compounds shown in Table 1 in dimethylsulfoxide was added, and then, the above-mentioned aqueous solution of sodium arachidonate was added to the resultant mixture.
The platelet aggregation reactions were measured with the aid of a platelet aggregation tracer (model PAT-4A, made by NIKO Bioscience Co., Ltd.) and its IC100 values (the concentration of an agent necessary for inhibiting platelet aggregation perfectly) are shown in Table 1.

granuloma formation = assay type: in vivo, male Donryu rats; settings: 10 days
Description: The activity of the present compounds in inhibiting the granuloma formation was examined according to the method of Fujimura et al. (refer to "OYO YAKURI", 19(3), 329(1981)) while using male Donryu rats of 5 weeks after birth as follows.
(§1) After burying a paper disk of 13 mm in diameter and 0.26 mm in thickness immersed in an aqueous 2% solution of carboxymethylcellulose (hereinafter referred to as CMC) containing both dihydroxystreptomycin and penicillin (both of 10^6 unit at a rate of 0.1 mg/ml) into the back of each rat under anesthesia by ether, the rats were divided into four groups. To rats of the first group, an aqueous 0.3% solution of CMC was orally administered every day for 10 days, to rat of the second group, an aqueous dispersion of one of the present compounds shown in Table 3 in an aqueous 0.3% solution of CMC was orally administered every day for 10 days and to rat of the third and fourth groups, an aqueous 0.3% solution of CMC containing either indomethacin or prednisolone was orally administered every day for 10 days.
The rate of inhibiting the granuloma formation was obtained from the following formula: [formula] wherein T is the average weight of granuloma in the test group and C is the average weight of granuloma in the control group.

adjuvant arthritis = assay: Inhibitory activity of adjuvant arthritis; assay type: in vivo, male Lewis rats; settings: for Increment of the volume of hind paw after 21 days of injection (I1): at beginning of administration; for Increment of the volume of hind paw after 36 days of injection (I2) / Rate of inhibiting adjuvant arthritis: 14 days
Description: The activity of the present compound in inhibiting the adjuvant arthritis was examined while using groups of male Lewis rats of 8 weeks after birth and according to the method of Fujihira et al. (refer to "OYO YAKURI", 5(2), 169, (1971)) as follows.
Groups of 8 rats were used, and to each rat of whole groups under anesthesia by ether, a Freund's complete adjuvant dissolved in mineral oil at a concentration of 0.6 mg/0.1 ml was injected intradermally into the trail thereof.
After 3 weeks of the injection, to each rat of a group an aqueous dispersion of one of the present compounds shown in Table 4 in an aqueous 0.3% solution of CMC was orally administered every day for 14 days, and to each of the control group, the aqueous 0.3% solution of CMC was administered in a similar manner, each rat of the positive control group being treated with the similar oral administration of prednisolone in the aqueous 0.3% solution of CMC. The volume of the hind paw of each rat was measured on the day of starting the administration and on the next day after finishing the administration.
The results of the test are shown in Table 4 as the increment of the volume of the hind paw and the rate of inhibiting the increase of the volume thereof.
The increment of the volume of the hind paw at the beginning of the administration, namely after 21 days of the injection of the complete adjuvant (I1), and the increment of that after the finishing of the injection, namely after 36 days of the injection of the complete adjuvant (I2) are respectively as follows.
wherein V0 is the volume of the hind paw just before the injection, V1 is that after 21 days of the injection and V2 is that after 36 days of the injection.
The rate of inhibiting the increase of the volume of the hind paw, namely the activity of treating the adjuvant arthritis is obtained by the following formula: [formula]

[2] = design: species or system male Donryu rats; settings: rat, in vivo
Description: as §1

O=C(Nc1ccccn1)c1ccc(O)c(O)c1 [Compound No. 2, N--(2-pyridyl)-3,4-dihydroxybenzamide]
Inhibition rate of exudation of PMN ([1]; after 3 hr, 50 mg/kg oral): 53.1% | Number of PMN in exudated liquid ([1]; after 3 hr, 50 mg/kg oral): 2.3 (number/mm^3) × 10^3 | Inhibition rate of exudation of PMN ([1]; after 6 hr, 50 mg/kg oral): 37.6% | Number of PMN in exudated liquid ([1]; after 6 hr, 50 mg/kg oral): 13.6 (number/mm^3) × 10^3 | IC100 (platelet aggregation): 25 µM | Rate of inhibition of granuloma formation (granuloma formation; 25 mg/kg/day oral): 64% | Weight of dried granuloma (granuloma formation; 25 mg/kg/day oral): 98 mg | Rate of inhibition of granuloma formation (granuloma formation; 50 mg/kg/day oral): 76% | Weight of dried granuloma (granuloma formation; 50 mg/kg/day oral): 69 mg | Increment of the volume of hind paw after 21 days of injection (I1) (adjuvant arthritis; 25 mg/kg/day group): 1.32 mL | Increment of the volume of hind paw after 36 days of injection (I2) (adjuvant arthritis; 25 mg/kg/day oral): 0.51 mL | Rate of inhibiting adjuvant arthritis (adjuvant arthritis; 25 mg/kg/day oral): 61% | Increment of the volume of hind paw after 21 days of injection (I1) (adjuvant arthritis; 50 mg/kg/day group): 1.30 mL | Increment of the volume of hind paw after 36 days of injection (I2) (adjuvant arthritis; 50 mg/kg/day oral): 0.53 mL | Rate of inhibiting adjuvant arthritis (adjuvant arthritis; 50 mg/kg/day oral): 59%

CCCCNC(=O)c1ccc(O)c(O)c1 [compound 3, N--(n-butyl)-3,4-dihydroxybenzamide]
IC100 (platelet aggregation): 45 µM

C[C@]12C=CC(=O)C=C1CC[C@@H]1[C@@H]2[C@@H](O)C[C@@]2(C)[C@H]1CC[C@]2(O)C(=O)CO [prednisolone, reference compound]
autopsy findings, gastric [2]: hemorrhage from the gastric mucosa and formation of stomach ulcer were found | autopsy findings, thymus [2]: atrophy of the thymus was significantly found | Rate of inhibition of granuloma formation (granuloma formation; 3 mg/kg/day oral): 45% | Weight of dried granuloma (granuloma formation; 3 mg/kg/day oral): 158 mg | Increment of the volume of hind paw after 21 days of injection (I1) (adjuvant arthritis; 3 mg/kg/day group): 1.27 mL | Increment of the volume of hind paw after 36 days of injection (I2) (adjuvant arthritis; 3 mg/kg/day oral): 0.71 mL | Rate of inhibiting adjuvant arthritis (adjuvant arthritis; 3 mg/kg/day oral): 44%

COc1ccc2c(c1)c(CC(=O)O)c(C)n2C(=O)c1ccc(Cl)cc1 [indomethacin, reference compound]
Inhibition rate of exudation of PMN ([1]; after 3 hr, 3 mg/kg oral): 20.4% | Number of PMN in exudated liquid ([1]; after 3 hr, 3 mg/kg oral): 3.9 (number/mm^3) × 10^3 | Inhibition rate of exudation of PMN ([1]; after 6 hr, 3 mg/kg oral): 22.0% | Number of PMN in exudated liquid ([1]; after 6 hr, 3 mg/kg oral): 17.0 (number/mm^3) × 10^3 | autopsy findings, gastric [2]: hemorrhage from the gastric mucosa and formation of stomach ulcer were found | Rate of inhibition of granuloma formation (granuloma formation; 3 mg/kg/day oral): 39% | Weight of dried granuloma (granuloma formation; 3 mg/kg/day oral): 175 mg

O=C(c1ccc(O)c(O)c1)N1CCCCC1 [compound 4, 3,4-dihydroxybenzpiperidide]
Inhibition rate of exudation of PMN ([1]; after 3 hr, 50 mg/kg oral): 46.9% | Number of PMN in exudated liquid ([1]; after 3 hr, 50 mg/kg oral): 2.6 (number/mm^3) × 10^3 | Inhibition rate of exudation of PMN ([1]; after 6 hr, 50 mg/kg oral): 25.2% | Number of PMN in exudated liquid ([1]; after 6 hr, 50 mg/kg oral): 16.3 (number/mm^3) × 10^3 | IC100 (platelet aggregation): 65 µM | Rate of inhibition of granuloma formation (granuloma formation; 25 mg/kg/day oral): 49% | Weight of dried granuloma (granuloma formation; 25 mg/kg/day oral): 146 mg | Rate of inhibition of granuloma formation (granuloma formation; 50 mg/kg/day oral): 65% | Weight of dried granuloma (granuloma formation; 50 mg/kg/day oral): 101 mg

CCCCCCCCNC(=O)c1ccc(O)c(O)c1 [Compound No. 1, N-(n-octyl)-3,4-dihydroxybenzamide]
Inhibition rate of exudation of PMN ([1]; after 3 hr, 50 mg/kg oral): 51.0% | Number of PMN in exudated liquid ([1]; after 3 hr, 50 mg/kg oral): 2.4 (number/mm^3) × 10^3 | Inhibition rate of exudation of PMN ([1]; after 6 hr, 50 mg/kg oral): 22.9% | Number of PMN in exudated liquid ([1]; after 6 hr, 50 mg/kg oral): 16.8 (number/mm^3) × 10^3 | IC100 (platelet aggregation): < 18 µM | Rate of inhibition of granuloma formation (granuloma formation; 25 mg/kg/day oral): 53% | Weight of dried granuloma (granuloma formation; 25 mg/kg/day oral): 135 mg | Rate of inhibition of granuloma formation (granuloma formation; 50 mg/kg/day oral): 72% | Weight of dried granuloma (granuloma formation; 50 mg/kg/day oral): 80 mg | Increment of the volume of hind paw after 21 days of injection (I1) (adjuvant arthritis; 25 mg/kg/day group): 1.29 mL | Increment of the volume of hind paw after 36 days of injection (I2) (adjuvant arthritis; 25 mg/kg/day oral): 0.65 mL | Rate of inhibiting adjuvant arthritis (adjuvant arthritis; 25 mg/kg/day oral): 50% | Increment of the volume of hind paw after 21 days of injection (I1) (adjuvant arthritis; 50 mg/kg/day group): 1.28 mL | Increment of the volume of hind paw after 36 days of injection (I2) (adjuvant arthritis; 50 mg/kg/day oral): 0.59 mL | Rate of inhibiting adjuvant arthritis (adjuvant arthritis; 50 mg/kg/day oral): 54%

O=C(NCCCc1ccccc1)c1ccc(O)c(O)c1 [compound 6, N--(ω-phenylpropyl)-3,4-dihydroxybenzamide]
IC100 (platelet aggregation): 80 µM

CCCCCCCCCCCCNC(=O)c1ccc(O)c(O)c1 [compound 5, N--(n-dodecyl)-3,4-dihydroxybenzamide]
IC100 (platelet aggregation): < 18 µM

CN1CCN(C(=O)c2ccc(O)c(O)c2)CC1 [compound 7, 3,4-dihydroxybenz-N--methylpiperazide]
IC100 (platelet aggregation): 300 µM
